From ChEMBL document CHEMBL1629626, “Ultrastructural effects of oritavancin on methicillin-resistant Staphylococcus aureus and vancomycin-resistant Enterococcus” (2009)
Active and inactive are the calls of the source. The calls are words filed in the database; no cut-off is given here.

Tests used:
[1] = test system: Staphylococcus aureus; test: Antimicrobial activity against methicillin-resistant Staphylococcus aureus ATCC 43300 assessed as loss of septal midline at 1 ug/ml after 10 mins by transmission electron microscopy; type: functional, organism-based
[2] = test system: Enterococcus faecalis; test: Antimicrobial activity against Enterococcus faecalis clinical isolate A5241515 assessed as cell ghost formation at 0.12 ug/ml after 3 hrs by transmission electron microscopy; type: functional, organism-based
[3] = test system: Staphylococcus aureus; test: Antimicrobial activity against methicillin-resistant Staphylococcus aureus ATCC 43300 assessed as reduction in cell counts at 1 ug/ml after 10 mins; type: functional
[4] = test system: Staphylococcus aureus; test: Antimicrobial activity against methicillin-resistant Staphylococcus aureus ATCC 43300 assessed as formation of membrane inclusions at 1 ug/ml after 10 mins by transmission electron microscopy; type: functional, organism-based
[5] = test system: Enterococcus faecalis; test: Antimicrobial activity against Enterococcus faecalis clinical isolate A5241515 assessed as septal deformation at 0.12 ug/ml after 3 hrs by transmission electron microscopy; type: functional, organism-based
[6] = test system: Staphylococcus aureus; test: Antimicrobial activity against methicillin-resistant Staphylococcus aureus ATCC 43300 assessed as septal deformation at 1 ug/ml after 10 mins by transmission electron microscopy; type: functional, organism-based
[7] = test system: Enterococcus faecalis; test: Antimicrobial activity against Enterococcus faecalis clinical isolate A5241515 assessed as growth inhibition at 1 ug/ml upto 6 hrs; type: functional, organism-based
[8] = test system: Staphylococcus aureus; test: Antimicrobial activity against methicillin-resistant Staphylococcus aureus ATCC 43300 assessed as aberrant septum formation at 1 ug/ml after 10 mins by transmission electron microscopy; type: functional, organism-based
[9] = test system: Enterococcus faecalis; test: Antimicrobial activity against Enterococcus faecalis clinical isolate A5241515 assessed as growth inhibition at 0.12 ug/ml upto 3 hrs; type: functional, organism-based
[10] = test system: Staphylococcus aureus; test: Antimicrobial activity against methicillin-resistant Staphylococcus aureus ATCC 43300 assessed as cell wall thickening at 1 ug/ml after 10 mins by transmission electron microscopy; type: functional, organism-based
[11] = test system: Enterococcus faecalis; test: Antimicrobial activity against Enterococcus faecalis clinical isolate A5241515 assessed as formation of large membrane inclusions at 1 ug/ml after 6 hrs by transmission electron microscopy; type: functional, organism-based
[12] = test system: Enterococcus faecalis; test: Antimicrobial activity against Enterococcus faecalis clinical isolate A5241515 assessed as formation of extensive fibrils around the cell at 0.12 ug/ml after 3 hrs by transmission electron microscopy; type: functional, organism-based
[13] = test system: Staphylococcus aureus; test: Antimicrobial activity against methicillin-resistant Staphylococcus aureus ATCC 43300 assessed as cell wall thickening at 16 ug/ml after 3 hrs by transmission electron microscopy; type: functional, organism-based
[14] = test system: Staphylococcus aureus; test: Antimicrobial activity against methicillin-resistant Staphylococcus aureus ATCC 43300 assessed as aberrant septum formation at 16 ug/ml after 3 hrs by transmission electron microscopy; type: functional, organism-based
[15] = test system: Staphylococcus aureus; test: Antimicrobial activity against methicillin-resistant Staphylococcus aureus ATCC 43300 assessed as reduction in cell counts at 16 ug/ml after 3 hrs; type: functional
[16] = test system: Staphylococcus aureus; test: Antimicrobial activity against methicillin-resistant Staphylococcus aureus ATCC 43300 assessed as formation of closing iris septal growth pattern at 16 ug/ml after 3 hrs by transmission electron microscopy; type: functional, organism-based
[17] = test system: Staphylococcus aureus; test: Antimicrobial activity against methicillin-resistant Staphylococcus aureus ATCC 43300 assessed as septal deformation at 16 ug/ml after 3 hrs by transmission electron microscopy; type: functional, organism-based
[18] = test system: Staphylococcus aureus; test: Antimicrobial activity against methicillin-resistant Staphylococcus aureus ATCC 43300 assessed as loss of septal midline at 16 ug/ml after 3 hrs by transmission electron microscopy; type: functional, organism-based

| SMILES | Activity [1] | Activity [2] | fold change (FC) [3] | Activity [4] | Activity [5] | Activity [6] | Activity [7] | Activity [8] | Activity [9] | Activity [10] | Activity [11] | Activity [12] | Activity [13] | Activity [14] | fold change (FC) [15] | Activity [16] | Activity [17] | Activity [18] |
| --- | --- | --- | --- | --- | --- | --- | --- | --- | --- | --- | --- | --- | --- | --- | --- | --- | --- | --- |
| CN[C@H](CC(C)C)C(=O)N[C@H]1C(=O)N[C@@H](CC(N)=O)C(=O)N[C@H]2C(=O)N[C@H]3C(=O)N[C@H](C(=O)N[C@H](C(=O)O)c4cc(O)cc(O)c4-c4cc3ccc4O)[C@H](O[C@H]3C[C@](C)(N)[C@@H](O)[C@H](C)O3)c3ccc(c(Cl)c3)Oc3cc2cc(c3O[C@@H]2O[C@H](CO)[C@@H](O)[C@H](O)[C@H]2O[C@H]2C[C@](C)(NCc3ccc(-c4ccc(Cl)cc4)cc3)[C@@H](O)[C@H](C)O2)Oc2ccc(cc2Cl)[C@H]1O [ORITAVANCIN] | Active | Active | 0.35 | Active | Active | Active | Active | Active | Active | Active | Active | Active | – | – | – | – | – | – |
| CN[C@H](CC(C)C)C(=O)N[C@H]1C(=O)N[C@@H](CC(N)=O)C(=O)N[C@H]2C(=O)N[C@H]3C(=O)N[C@H](C(=O)N[C@H](C(=O)O)c4cc(O)cc(O)c4-c4cc3ccc4O)[C@H](O)c3ccc(c(Cl)c3)Oc3cc2cc(c3O[C@@H]2O[C@H](CO)[C@@H](O)[C@H](O)[C@H]2O[C@H]2C[C@](C)(N)[C@H](O)[C@H](C)O2)Oc2ccc(cc2Cl)[C@H]1O [VANCOMYCIN] | – | – | – | – | – | – | – | – | – | – | – | – | Active | inactive | 0.26 | Active | inactive | inactive |
